Measured values from the pKa sets of Baltruschat and Czodrowski (2020).

Structure (SMILES)	pKa (basic group)	pKa (acidic group)
CC1=CSC2=NCCN12	9.81	
CCCC[P+](CCCC)(CCCC)C1c2ccccc2-c2ccccc21		10.5
N[C@H]1CCCC[C@@H]1O	9.35	
O=[N+]([O-])c1n[nH]c(-n2cnc(Br)n2)n1		1.63
O=[N+]([O-])c1cc2cc(O)ccc2cc1Cl		8.56
NC(=O)Nc1ccc([N+](=O)[O-])cc1		14
O=C([O-])C(CO)[NH2+]Cc1cc(Cl)ccc1O (stereo not drawn)		7.95
COc1ccc(OC)nn1	1.61	
Oc1[nH+]ncc2ccccc12		-2
Nc1ccc([NH3+])cc1	2.86	
O=C(CC(=O)c1ccc([N+](=O)[O-])cc1)Nc1ccccc1		8.7
CC1(C)SCNC1C(=O)[O-] (stereo not drawn)	6.34	
Nc1c2ccccc2nc2cccc([N+](=O)[O-])c12	7.3	
C#CCCCN(C)C	8.88	
CNC(=O)c1ncnc2nc[nH]c12		8.9
[NH3+]CCCc1ccncc1	5.51	
c1cnc2c(c1)ccc1c3c(cnc12)CCCC3	5.66	
CCc1c(-c2ccccc2)nn(C2CC[NH+](C)CC2)c1O		5.9
CC(=S)Nc1ccc(Cl)cc1		11.1
CC(C)(C)C1C(=O)NC(=O)NC1=O		7.98
CC1CN2CCC1CC2 (stereo not drawn)	11.3	
Brc1ccnc2c1ccc1cccnc12	4.03	
CN(C)c1nc2ncncc2[nH]1	4.8	9.73
OCCCc1cccnc1	5.57	
O=C(O)[C@H](O)c1ccc([N+](=O)[O-])cc1		2.99

Structure (SMILES)	pKa (basic group)	pKa (acidic group)
C[n+]1c2ccccc2cc2c(N)cccc21		10
COc1cccc[n+]1O		1.23
C[C@H]1C[C@@H]2CCN1C2	10.6	
NC(=O)Nc1ncnc2nc[nH]c12	2.35	9.95
N#CC(c1ccc(Cl)cc1)c1ccc([N+](=O)[O-])cc1 (stereo not drawn)		10.7
OCCO		14
NC(=S)C[NH3+]	-8.39	
COC(=O)C[C@@H]1[C@@H](C(=O)O)[NH2+]C[C@H]1C(C)O (stereo partly drawn)		2.4
O=C(O)[C@H]1O[C@@H]1C(=O)O		1.92
Cc1ncc(CO)c(CN)c1[O-]	10.3	
O=[N+]([O-])c1ccc(Nc2ccccc2)cc1	-2.5	
CCCN(CC(C)O)CC(O)CC (stereo not drawn)	9	
COO		11.5
C(CSCCc1nnn[nH]1)SCCc1nnn[nH]1		5
O=C1CCc2ccc([N+](=O)[O-])cc2C1		11.8
COc1ccc2c(c1)C([P+](c1ccccc1)(c1ccccc1)c1ccccc1)c1ccccc1-2 (stereo not drawn)	9.09	
CC1=NS(=O)(=O)c2cccnc2N1		7.64
CC1=NS(=O)(=O)c2cnccc2N1		7.6
O=C1C[C@H]2OCC=C3CN4CC[C@@]56c7ccccc7N1[C@@H]5[C@@H]2[C@@H]3C[C@@H]46	8.18	
N[C@H]1CONC1=O	7.53	
Cc1cc(C)[n+](C)c([S-])n1	3.15	
Oc1ccc(Cl)cc1CN1CCCC1	11.7	
Cc1ccnc2ccccc12	5.51	
CCC(O)CN(CC)CC(C)O (stereo not drawn)	9.2	
Cc1ccc(CON)cc1	4.4	

Structure (SMILES)	pKa (basic group)	pKa (acidic group)
Nc1cccc(-c2nc3ccccc3s2)c1	3.4	
O=[N+]([O-])c1ccccc1[Se]O		10.5
Cc1cc(N)ccc1-c1ccc([NH3+])cc1C	3.7	
O=C(O)c1ccc(Cl)s1		3.41
N[C@@H](C(=O)[O-])[C@H](O)C(=O)[O-]	9	
CN(C)CCC/N=C(\c1ccccc1)c1cccc2ccccc12	9	
Nc1ccc(S(=O)(=O)Nc2ccc(Br)nc2)cc1		7.12
CCCCCCCCCCNc1ccccc1	4.56	
CCN(CC)c1ncnc2[nH]ncc12	4.71	
COC(=O)Cc1ccccc1N	3.71	
CCc1ccc(O)c(C(C)C)c1		10.8
CNNC1CCN(C)CC1	8.7	
Cc1[nH]cnc1CSCCNC(=[NH2+])NCCCc1c[nH]cn1	7.26	
CCC[NH2+]CCS		7.92
Cc1ccc(C(N)=S)cc1		12.8
Oc1ccc2cnccc2c1	5.85	9.15
CC(CN)C(=O)[O-] (stereo not drawn)	9.91	
CCNc1ccccc1	5.29	
Cc1cccc(C(=O)O)c1Br		2.9
Cn1ccc(=N)cc1	12.5	
CCCN(C)N	7.35	
NCCc1ccccc1	9.89	
CCCCCCCCN(CC(C)O)CC(C)O (stereo not drawn)	8.3	
O=C(c1ccccc1)c1ccc(O)cc1		8.01
CCCCc1c(C)nc(NCC)nc1[O-]	11	

Structure (SMILES)	pKa (basic group)	pKa (acidic group)
CC(C)(C)CC(=O)O		5.01
O=C([O-])[C@@H]1O[C@H](Oc2ccc3[nH+]c(O)ccc3c2)[C@@H](O)[C@H](O)[C@H]1O		3.75
O=C(O)Cc1ccc(-c2ccccc2)cc1		4.46
C[NH+](C)c1ccc(N)cc1	3.73	
CN(C)c1cccc2c(S(=O)(=O)NCC(=O)[O-])cccc12		11.7
C=C(C)C(C)(C(N)=O)C(=O)O (stereo not drawn)		3.42
CCNN	7.95	
O=C(O)c1cc(-c2ccccc2)oc(=O)c1		3.3
COc1ccc(C(=S)Nc2ccccc2)cc1		11.3
C=C[C@@H]1CNC(=S)O1		10.2
N[C@H]1CCC[C@H](O)C1	10.1	
CC(=O)/N=c1\ccccn1C	7.12	
COCC(=O)NN		12.1
O=C([O-])c1ccncc1	4.9	
CCc1c(C)nn(C)c1O	3.5	
N#CC(C#N)C(c1ccccc1)C(C#N)C#N		6.19
[NH3+]c1ccc(CC(=O)O)cc1		3.49
O=C1C=CC(=O)/C(=N/O)N1		8.4
Cc1nc[nH]c1C	8.19	
Nc1ccccc1F	2.96	
O=C(O)c1ccc(O)c2ncccc12	4	
Cc1ncc(C(=O)O)s1		3.26
N#CCC(C(=O)O)c1ccccc1 (stereo not drawn)		3.44
[NH3+]CCc1cccc(O)c1		9.27
Cc1cc(C)c2ccccc2n1	5.11	

Structure (SMILES)	pKa (basic group)	pKa (acidic group)
S=C(NC(=S)c1ccccc1)Nc1ccccc1		10.7
Nc1nccc(-c2csc(N)[nH+]2)n1	2.6	
Cc1cc(-c2ccccc2)n[n+](CCN2CCOCC2)c1N	4.84	
O=C(O)CCCOC(=O)CCCBr		4.6
Cc1cccc(OC(O)(CBr)c2ccccc2)c1 (stereo not drawn)		11.2
NCCCCc1ccccn1	10.3	
CC(=O)N1CCc2noc(O)c2CC1		4.3
N#Cc1ccncc1	1.91	
CCCC1(CCC)SC(=O)NC1=O		6.37
Nc1cccc2cccc(N)c12	4.6	
Sc1cccc[nH+]1		-1.22
CCCCCCn1ccnc1	7.2	
CCOCCn1c(CN2CCN(CCCCn3cc(C(=O)[O-])cn3)CC2)nc2ccccc21	8	
NC(=O)C(CC(=O)O)c1ccccc1 (stereo not drawn)		4.23
CC1NCCC[NH2+]1	7.19	
CC(=O)[n+]1ccc(C#N)cc1		1.98
CC1(C)[C@H]2CC[C@@]1(C)[C@@H](O)[C@H]2C(=O)O		2.05
Nc1ccc(S(=O)(=O)Nc2ncc[nH]2)cc1		9.72
c1ccc2nnccc2c1	2.29	
O=N/C(Cc1ccccc1)=N\O		5.3
Oc1cccc2scnc12	1.25	8.77
O=C(Cc1ccncc1)c1ccccc1	4.63	12.7
Cc1cnc2c(ccc3cc(C)cnc32)c1	5.23	
CN1C(=O)N(CCN2CCOCC2)C(=O)C(C)(C2=CCCCC2)C1=O (stereo not drawn)	5.75	
OCCc1cccnc1	5.38	

Structure (SMILES)	pKa (basic group)	pKa (acidic group)
Nc1ccc(Cl)cc1Cl	2.07	
COc1ccc2ccccc2n1	3.17	
CCO/C(C)=N/O		11.4
CN(C)c1ccc(/C=N/O)cc1		11.3
CC(C)c1csc(C(=O)O)c1		3.64
CCCNC(C)C(=O)Nc1ccccc1C (stereo not drawn)	7.32	
O=C1CS(=O)(=O)NC(=O)N1		2.7
NCC#CC#CCCC(=O)[O-]	8.26	
CC(=O)C(C=O)C(C)=O		4.6
[NH3+]C(Cc1c[nH]c(=S)[nH]1)C(=O)O (stereo not drawn)		1.84
Cc1ccc(CNCC[NH3+])cc1	6.51	
Cc1cc(O)ccc1/N=N/c1ccc2c(c1)Cc1ccccc1-2		10.3
O=C(O)[C@@H]1CC[C@@H](C(=O)O)[Se][Se]1		2.85
C=C(C)C1=C(O)CC(C)CC1 (stereo not drawn)		11.9
Nc1ccnc(-c2cc(N)ccn2)c1	8.8	
Cn1cccc1-c1cccnc1	4.73	
COc1ccc(/C=C/C(=O)O)cc1		4.6
CCCCCNN	6.25	
CC1(C)OC(=O)NC1=O		6.15
Cc1ccc(C(=O)O)c(Cl)c1		3.27
CC1(C)C=CC(C)(c2cc3ccc(=O)oc3cc2O)CC1 (stereo not drawn)		8.12
[NH3+][C@H]1CONC1=O		4.54
CC(C)(C)[C@]1(O)CCN2C[C@H]3c4ccccc4CCc4cccc(c43)[C@@H]2C1	7.15	
N=C(Nc1ccccc1)Nc1ccccc1	9.94	
Cc1ccc(O)c(O)c1		9.62

Structure (SMILES)	pKa (basic group)	pKa (acidic group)
C/C=C1/CN2[C@@H]3C[C@H]1C1[C@@H](O)[C@]4(C[C@@H]12)c1ccccc1N(C)[C@@H]34 (stereo partly drawn)	8.5	
CC(C)N/C=N/c1ccc(-c2cncn2C)cc1	8.83	
N#CCCN	7.75	
Oc1ccc(Cl)cc1		9.29
CCCC(=O)NO		9.48
COc1ccc(NCCS)cc1	5.3	
CC12CN3CC(C)(C1)CC(C)(C3)C2	10.7	
Nc1ccc(-c2ccccc2)cc1	4.38	
NC(Cc1c[nH]c2ccccc12)C(=O)[O-] (stereo not drawn)	9.44	
Cc1nc(-c2ccccc2)[nH]c1C	7	
COc1c(Br)cccc1C(=O)N[C@@H]1C[C@H]2CC[C@@H](C1)N2Cc1ccccc1	8.73	
CC(C(N)=O)S(=O)(=O)NC(N)=O (stereo not drawn)		5.21
CS(=O)O		2.35
Sc1cc2ccccc2cn1	0.39	8.58
Nc1cc2c(cc1Br)CCCC2	3.05	
CC(=O)CN=O		8.4
Oc1cccc[nH+]1		0.75
Cc1cc([O-])[nH+]c([O-])n1	9.29	
C=CC[NH+](C)CCCNC(=O)/C=N/O		8.48
Cc1ccnc([O-])n1	9.8	
CCN(CC)CC(=O)N(C)c1ccccc1C	8.74	
Nc1ccc(S(=O)(=O)Nc2cnc(Cl)nc2)cc1		5.8
